Measurements taken from US3995047A, “Propiophenone derivatives in the treatment of pathological muscular conditions” (Eisai Co., Ltd., priority 1973, dated 1976).

System: physostigmine-induced convulsive death
Test: Anti-physostigmine activity: antagonism of convulsive death caused by physostigmine
Assay type: in vivo, male d,d-strain mice
Conditions: Mus musculus, 1 h; oral, mice, 60 minutes after administration; footnote 1) for control: no effect up to the dose
Method: (§1) Male d,d-strain mice weighing 18 to 22 grs. were used for the experiments.
(§2) Groups of each 10 mice were treated orally and intraperitoneally with a wide range of doses of the above-mentioned compounds or saline.
(§3) 2) Anti-nicotine and anti-physostigmine activities:
(§4) Antagonistic effects against the convulsive death of the mice caused by the injections of nicotine, on one hand, and physostigmine, on the other hand, were observed as follows:
(§5) Thirty (30) minutes after the intraperitoneal injection of the individual compounds under test, on one hand, and 60 minutes after the oral administration of said individual compounds, on the other hand, 4 mg/kg of nicotine tartrate, on one hand, and 0.5 mg/kg of physostigmine sulfate, on the other hand, were intravenously injected to each group of the mice. The convulsive death, if any, of the mice in each group was then observed.

Row | SMILES | ED50 [mg/kg]
1 | Cc1ccc(C(=O)C(C)CN2CCCCC2)cc1.Cl (centres unmarked) [Compound for Control, 2,4'-dimethyl-3-piperidino-propiophenone hydrochloride, reference compound] | > 400
2 | CCc1ccc(C(=O)C(C)CN2CCCCC2)cc1.Cl (centres unmarked) [Compound A, 4'-ethyl-2-methyl-3-piperidino-propiophenone hydrochloride] | 84
3 | CC(CN1CCCCC1)C(=O)c1ccc(C(C)C)cc1.Cl (centres unmarked) [Compound C, 4'-isopropyl-2-methyl-3-piperidino-propiophenone hydrochloride] | 50
4 | CCCc1ccc(C(=O)C(C)CN2CCCCC2)cc1.Cl (centres unmarked) [Compound B, 4'-n-propyl-2-methyl-3-piperidino-propiophenone hydrochloride] | 150

System: isolated smooth muscle preparations
Test: Smooth muscle-relaxing activity on isolated smooth muscle preparations
Conditions: A at 4 × 10^-6, B at 10^-6, C at 4 × 10^-7 g/ml, concentration for control not stated
Text: (§6) Additionally, anti-histamine, anti-acetylcholine, antiserotonin and smooth muscle-relaxing activities of the compounds under test were examined on isolated smooth muscle preparations.

Row | SMILES | smooth muscle-relaxant activity (in words)
5 | Cc1ccc(C(=O)C(C)CN2CCCCC2)cc1.Cl (centres unmarked) [Compound for Control, 2,4'-dimethyl-3-piperidino-propiophenone hydrochloride, reference compound] | weak smooth muscle-relaxant activity
6 | CCc1ccc(C(=O)C(C)CN2CCCCC2)cc1.Cl (centres unmarked) [Compound A, 4'-ethyl-2-methyl-3-piperidino-propiophenone hydrochloride] | strong smooth muscle-relaxant activities
7 | CC(CN1CCCCC1)C(=O)c1ccc(C(C)C)cc1.Cl (centres unmarked) [Compound C, 4'-isopropyl-2-methyl-3-piperidino-propiophenone hydrochloride] | strong smooth muscle-relaxant activities
8 | CCCc1ccc(C(=O)C(C)CN2CCCCC2)cc1.Cl (centres unmarked) [Compound B, 4'-n-propyl-2-methyl-3-piperidino-propiophenone hydrochloride] | strong smooth muscle-relaxant activities

Same assay, conditions: Compound under control vs papaverine

Row | SMILES | smooth muscle-relaxant potency relative to papaverine
9 | Cc1ccc(C(=O)C(C)CN2CCCCC2)cc1.Cl (centres unmarked) [Compound for Control, 2,4'-dimethyl-3-piperidino-propiophenone hydrochloride, reference compound] | about 1/3

System: nicotine-induced convulsive death
Test: Anti-nicotine activity: antagonism of convulsive death caused by nicotine
Assay type: in vivo, male d,d-strain mice
Conditions: Mus musculus, 1 h; oral, mice, 60 minutes after administration
Method: as §1, §2, §3, §4, §5

Row | SMILES | ED50 [mg/kg]
10 | Cc1ccc(C(=O)C(C)CN2CCCCC2)cc1.Cl (centres unmarked) [Compound for Control, 2,4'-dimethyl-3-piperidino-propiophenone hydrochloride, reference compound] | 450
11 | CCc1ccc(C(=O)C(C)CN2CCCCC2)cc1.Cl (centres unmarked) [Compound A, 4'-ethyl-2-methyl-3-piperidino-propiophenone hydrochloride] | 175
12 | CC(CN1CCCCC1)C(=O)c1ccc(C(C)C)cc1.Cl (centres unmarked) [Compound C, 4'-isopropyl-2-methyl-3-piperidino-propiophenone hydrochloride] | 37
13 | CCCc1ccc(C(=O)C(C)CN2CCCCC2)cc1.Cl (centres unmarked) [Compound B, 4'-n-propyl-2-methyl-3-piperidino-propiophenone hydrochloride] | 135

Same assay, conditions: Mus musculus, ip, 0.5 h; intraperitoneal, mice, 30 minutes after injection

Row | SMILES | ED50 [mg/kg]
14 | Cc1ccc(C(=O)C(C)CN2CCCCC2)cc1.Cl (centres unmarked) [Compound for Control, 2,4'-dimethyl-3-piperidino-propiophenone hydrochloride, reference compound] | 35
15 | CCc1ccc(C(=O)C(C)CN2CCCCC2)cc1.Cl (centres unmarked) [Compound A, 4'-ethyl-2-methyl-3-piperidino-propiophenone hydrochloride] | 21
16 | CC(CN1CCCCC1)C(=O)c1ccc(C(C)C)cc1.Cl (centres unmarked) [Compound C, 4'-isopropyl-2-methyl-3-piperidino-propiophenone hydrochloride] | 10
17 | CCCc1ccc(C(=O)C(C)CN2CCCCC2)cc1.Cl (centres unmarked) [Compound B, 4'-n-propyl-2-methyl-3-piperidino-propiophenone hydrochloride] | 20

System: not listed separately
Test: in vivo
Parameters: species or system male d,d-strain mice
Conditions: mouse, po
Method: as §1, §2

Row | SMILES | TD50 at 1 h [mg/kg]
18 | Cc1ccc(C(=O)C(C)CN2CCCCC2)cc1.Cl (centres unmarked) [Compound for Control, 2,4'-dimethyl-3-piperidino-propiophenone hydrochloride, reference compound] | 800
19 | CCc1ccc(C(=O)C(C)CN2CCCCC2)cc1.Cl (centres unmarked) [Compound A, 4'-ethyl-2-methyl-3-piperidino-propiophenone hydrochloride] | 640
20 | CC(CN1CCCCC1)C(=O)c1ccc(C(C)C)cc1.Cl (centres unmarked) [Compound C, 4'-isopropyl-2-methyl-3-piperidino-propiophenone hydrochloride] | 84
21 | CCCc1ccc(C(=O)C(C)CN2CCCCC2)cc1.Cl (centres unmarked) [Compound B, 4'-n-propyl-2-methyl-3-piperidino-propiophenone hydrochloride] | 800

System: isolated smooth muscle preparations (acetylcholine)
Test: Anti-acetylcholine activity on isolated smooth muscle preparations
Conditions: A at 4 × 10^-6, B at 10^-6, C at 4 × 10^-7 g/ml
Text: as §6

Row | SMILES | anti-acetylcholine activity (in words)
22 | CCc1ccc(C(=O)C(C)CN2CCCCC2)cc1.Cl (centres unmarked) [Compound A, 4'-ethyl-2-methyl-3-piperidino-propiophenone hydrochloride] | do not entirely produce
23 | CC(CN1CCCCC1)C(=O)c1ccc(C(C)C)cc1.Cl (centres unmarked) [Compound C, 4'-isopropyl-2-methyl-3-piperidino-propiophenone hydrochloride] | do not entirely produce
24 | CCCc1ccc(C(=O)C(C)CN2CCCCC2)cc1.Cl (centres unmarked) [Compound B, 4'-n-propyl-2-methyl-3-piperidino-propiophenone hydrochloride] | do not entirely produce

System: mice
Test: Acute toxicity: mortality during 24 hours after oral administration
Assay type: in vivo
Conditions: 24 hours
Method: as §1, §2
(§7) The mortality ensued during 24 hours after the oral administration was recorded to determine acute toxicity of the compound under test on the mice.

Row | SMILES | acute toxicity compared with Compound under control (in words)
25 | CCc1ccc(C(=O)C(C)CN2CCCCC2)cc1.Cl (centres unmarked) [Compound A, 4'-ethyl-2-methyl-3-piperidino-propiophenone hydrochloride] | slighly stronger
26 | CCCc1ccc(C(=O)C(C)CN2CCCCC2)cc1.Cl (centres unmarked) [Compound B, 4'-n-propyl-2-methyl-3-piperidino-propiophenone hydrochloride] | almost equivalent to that of Compound under control

System: not listed separately
Test: as above
Assay type: in vivo
Conditions: mouse, in vivo, mice, mortality during 24 hours
Method: as §1, §2, §7

Row | SMILES | LD50 at 24 h [mg/kg]
27 | Cc1ccc(C(=O)C(C)CN2CCCCC2)cc1.Cl (centres unmarked) [Compound for Control, 2,4'-dimethyl-3-piperidino-propiophenone hydrochloride, reference compound] | 1000 to 1500
28 | CCc1ccc(C(=O)C(C)CN2CCCCC2)cc1.Cl (centres unmarked) [Compound A, 4'-ethyl-2-methyl-3-piperidino-propiophenone hydrochloride] | 800 to 1000
29 | CC(CN1CCCCC1)C(=O)c1ccc(C(C)C)cc1.Cl (centres unmarked) [Compound C, 4'-isopropyl-2-methyl-3-piperidino-propiophenone hydrochloride] | 400 to 500
30 | CCCc1ccc(C(=O)C(C)CN2CCCCC2)cc1.Cl (centres unmarked) [Compound B, 4'-n-propyl-2-methyl-3-piperidino-propiophenone hydrochloride] | 1000 to 1500

System: isolated smooth muscle preparations (histamine)
Test: Anti-histamine activity on isolated smooth muscle preparations
Conditions: A at 4 × 10^-6, B at 10^-6, C at 4 × 10^-7 g/ml
Text: as §6

Row | SMILES | anti-histamine activity (in words)
31 | CCc1ccc(C(=O)C(C)CN2CCCCC2)cc1.Cl (centres unmarked) [Compound A, 4'-ethyl-2-methyl-3-piperidino-propiophenone hydrochloride] | do not entirely produce
32 | CC(CN1CCCCC1)C(=O)c1ccc(C(C)C)cc1.Cl (centres unmarked) [Compound C, 4'-isopropyl-2-methyl-3-piperidino-propiophenone hydrochloride] | do not entirely produce
33 | CCCc1ccc(C(=O)C(C)CN2CCCCC2)cc1.Cl (centres unmarked) [Compound B, 4'-n-propyl-2-methyl-3-piperidino-propiophenone hydrochloride] | do not entirely produce

System: tremorine-induced tremor
Test: Anti-tremorine activity: antagonism of tremorine-induced tremor
Assay type: in vivo, male d,d-strain mice
Conditions: Mus musculus, 1 h; oral, mice, 60 minutes after administration
Method: as §1, §2
1) Anti-tremorine activity:
Antagonistic effects on the tremorine-induced tremor were observed as follows:
Ten (10) minutes after the intraperitoneal injection of the individual compounds under test, on one hand, and 40 minutes after the oral administration of said individual compounds, on the other hand, 20 mg/kg of tremorine hydrochloride were subcutaneously injected to each group of the mice. The occurrence of tremor on the individually caged mice was visually observed 20 minutes after the tremorineinjection.

Row | SMILES | ED50 [mg/kg]
34 | Cc1ccc(C(=O)C(C)CN2CCCCC2)cc1.Cl (centres unmarked) [Compound for Control, 2,4'-dimethyl-3-piperidino-propiophenone hydrochloride, reference compound] | 210
35 | CCc1ccc(C(=O)C(C)CN2CCCCC2)cc1.Cl (centres unmarked) [Compound A, 4'-ethyl-2-methyl-3-piperidino-propiophenone hydrochloride] | 32
36 | CC(CN1CCCCC1)C(=O)c1ccc(C(C)C)cc1.Cl (centres unmarked) [Compound C, 4'-isopropyl-2-methyl-3-piperidino-propiophenone hydrochloride] | 118
37 | CCCc1ccc(C(=O)C(C)CN2CCCCC2)cc1.Cl (centres unmarked) [Compound B, 4'-n-propyl-2-methyl-3-piperidino-propiophenone hydrochloride] | 50

Same assay, conditions: Mus musculus, ip, 0.5 h; intraperitoneal, mice, 30 minutes after injection

Row | SMILES | ED50 [mg/kg]
38 | Cc1ccc(C(=O)C(C)CN2CCCCC2)cc1.Cl (centres unmarked) [Compound for Control, 2,4'-dimethyl-3-piperidino-propiophenone hydrochloride, reference compound] | 80
39 | CCc1ccc(C(=O)C(C)CN2CCCCC2)cc1.Cl (centres unmarked) [Compound A, 4'-ethyl-2-methyl-3-piperidino-propiophenone hydrochloride] | 23
40 | CC(CN1CCCCC1)C(=O)c1ccc(C(C)C)cc1.Cl (centres unmarked) [Compound C, 4'-isopropyl-2-methyl-3-piperidino-propiophenone hydrochloride] | 25
41 | CCCc1ccc(C(=O)C(C)CN2CCCCC2)cc1.Cl (centres unmarked) [Compound B, 4'-n-propyl-2-methyl-3-piperidino-propiophenone hydrochloride] | 21
